Test system: MCH receptors
Test: MCH receptor activity class (method not given)
Details: activity class 1-3: percent of control at 10^-7 M or IC50

Structure (SMILES) | class
CN(C)c1ccnc(N[C@H]2CC[C@@H](NC(=O)Oc3ccccc3)CC2)n1 [compound 1632] | 3 (Class 3 The value of percent of control at 10^−7 M was more than 60% or the value of IC50 was more than 200 nM.)
CC(C)[C@@H]1CC[C@@H](C)CC1OC(=O)N[C@H]1CC[C@@H](Nc2nccc(N(C)C)n2)CC1 (stereo partly shown) [compound 1633] | 3 (Class 3 The value of percent of control at 10^−7 M was more than 60% or the value of IC50 was more than 200 nM.)
Cc1ccc(OC(=O)N[C@H]2CC[C@@H](Nc3nccc(N(C)C)n3)CC2)cc1 [compound 1634] | 3 (Class 3 The value of percent of control at 10^−7 M was more than 60% or the value of IC50 was more than 200 nM.)
COC(=O)N[C@H]1CC[C@@H](Nc2nccc(N(C)C)n2)CC1 [compound 1635] | 3 (Class 3 The value of percent of control at 10^−7 M was more than 60% or the value of IC50 was more than 200 nM.)
CN(C)c1ccnc(N[C@H]2CC[C@@H](NC(=O)OCc3ccccc3Cl)CC2)n1 [compound 1636] | 3 (Class 3 The value of percent of control at 10^−7 M was more than 60% or the value of IC50 was more than 200 nM.)
CN(C)c1ccnc(N[C@H]2CC[C@@H](NC(=O)OCC3c4ccccc4-c4ccccc43)CC2)n1 [compound 1637] | 3 (Class 3 The value of percent of control at 10^−7 M was more than 60% or the value of IC50 was more than 200 nM.)
CN(C)c1ccnc(N[C@H]2CC[C@@H](NC(=O)OCC(Cl)(Cl)Cl)CC2)n1 [compound 1638] | 3 (Class 3 The value of percent of control at 10^−7 M was more than 60% or the value of IC50 was more than 200 nM.)
CN(C)c1ccnc(N[C@H]2CC[C@@H](CNC(=O)OCCOCc3ccccc3)CC2)n1 [compound 1639] | 3 (Class 3 The value of percent of control at 10^−7 M was more than 60% or the value of IC50 was more than 200 nM.)
CN(C)c1ccnc(N[C@H]2CC[C@@H](CNC(=O)OCC(C)(C)C)CC2)n1 [compound 1640] | 3 (Class 3 The value of percent of control at 10^−7 M was more than 60% or the value of IC50 was more than 200 nM.)
COc1cc(COC(=O)NC[C@H]2CC[C@@H](Nc3nccc(N(C)C)n3)CC2)c([N+](=O)[O-])cc1OC [compound 1641] | 3 (Class 3 The value of percent of control at 10^−7 M was more than 60% or the value of IC50 was more than 200 nM.)
CN(C)c1ccnc(N[C@H]2CC[C@@H](CNC(=O)Oc3cccc(C(F)(F)F)c3)CC2)n1 [compound 1642] | 3 (Class 3 The value of percent of control at 10^−7 M was more than 60% or the value of IC50 was more than 200 nM.)
CN(C)c1ccnc(N[C@H]2CC[C@@H](CNC(=O)Oc3ccc(Br)cc3)CC2)n1 [compound 1643] | 3 (Class 3 The value of percent of control at 10^−7 M was more than 60% or the value of IC50 was more than 200 nM.)
COc1ccccc1OC(=O)NC[C@H]1CC[C@@H](Nc2nccc(N(C)C)n2)CC1 [compound 1644] | 3 (Class 3 The value of percent of control at 10^−7 M was more than 60% or the value of IC50 was more than 200 nM.)
COCCOC(=O)NC[C@H]1CC[C@@H](Nc2nccc(N(C)C)n2)CC1 [compound 1645] | 3 (Class 3 The value of percent of control at 10^−7 M was more than 60% or the value of IC50 was more than 200 nM.)
CCCCCCCCOC(=O)NC[C@H]1CC[C@@H](Nc2nccc(N(C)C)n2)CC1 [compound 1646] | 3 (Class 3 The value of percent of control at 10^−7 M was more than 60% or the value of IC50 was more than 200 nM.)
CCOC(=O)NC[C@H]1CC[C@@H](Nc2nccc(N(C)C)n2)CC1 [compound 1647] | 3 (Class 3 The value of percent of control at 10^−7 M was more than 60% or the value of IC50 was more than 200 nM.)
CN(C)c1ccnc(NC2CCC(CNC(=O)OCc3ccc([N+](=O)[O-])cc3)CC2)n1 (stereo not shown) [compound 1648] | 3 (Class 3 The value of percent of control at 10^−7 M was more than 60% or the value of IC50 was more than 200 nM.)
CN(C)c1ccnc(N[C@H]2CC[C@@H](CNC(=O)Oc3ccc4ccccc4c3)CC2)n1 [compound 1649] | 3 (Class 3 The value of percent of control at 10^−7 M was more than 60% or the value of IC50 was more than 200 nM.)
C=CCOC(=O)NC[C@H]1CC[C@@H](Nc2nccc(N(C)C)n2)CC1 [compound 1650] | 3 (Class 3 The value of percent of control at 10^−7 M was more than 60% or the value of IC50 was more than 200 nM.)
CN(C)c1ccnc(NC2CCC(CNC(=O)OCc3ccccc3)CC2)n1 (stereo not shown) [compound 1651] | 3 (Class 3 The value of percent of control at 10^−7 M was more than 60% or the value of IC50 was more than 200 nM.)
CN(C)c1ccnc(N[C@H]2CC[C@@H](CNC(=O)Oc3ccccc3)CC2)n1 [compound 1652] | 3 (Class 3 The value of percent of control at 10^−7 M was more than 60% or the value of IC50 was more than 200 nM.)
CC(C)[C@@H]1CC[C@@H](C)CC1OC(=O)NC[C@H]1CC[C@@H](Nc2nccc(N(C)C)n2)CC1 (stereo partly shown) [compound 1653] | 3 (Class 3 The value of percent of control at 10^−7 M was more than 60% or the value of IC50 was more than 200 nM.)

Structure (SMILES) | class
Cc1ccc(OC(=O)NC[C@H]2CC[C@@H](Nc3nccc(N(C)C)n3)CC2)cc1 [compound 1654] | 3 (Class 3 The value of percent of control at 10^−7 M was more than 60% or the value of IC50 was more than 200 nM.)
COC(=O)NC[C@H]1CC[C@@H](Nc2nccc(N(C)C)n2)CC1 [compound 1655] | 3 (Class 3 The value of percent of control at 10^−7 M was more than 60% or the value of IC50 was more than 200 nM.)
CN(C)c1ccnc(N[C@H]2CC[C@@H](CNC(=O)OCc3ccccc3Cl)CC2)n1 [compound 1656] | 3 (Class 3 The value of percent of control at 10^−7 M was more than 60% or the value of IC50 was more than 200 nM.)
CN(C)c1ccnc(N[C@H]2CC[C@@H](CNC(=O)OCC3c4ccccc4-c4ccccc43)CC2)n1 [compound 1657] | 3 (Class 3 The value of percent of control at 10^−7 M was more than 60% or the value of IC50 was more than 200 nM.)
CN(C)c1ccnc(N[C@H]2CC[C@@H](CNC(=O)OCC(Cl)(Cl)Cl)CC2)n1 [compound 1658] | 3 (Class 3 The value of percent of control at 10^−7 M was more than 60% or the value of IC50 was more than 200 nM.)
CN(C)c1nc(N[C@H]2CC[C@@H](NC(=O)Nc3ccccc3Cl)CC2)nc2c1CCCC2 [compound 1659] | 3 (Class 3 The value of percent of control at 10^−7 M was more than 60% or the value of IC50 was more than 200 nM.)
Cc1cccc(C)c1NC(=O)N[C@H]1CC[C@@H](Nc2nc3c(c(N(C)C)n2)CCCC3)CC1 [compound 1660] | 3 (Class 3 The value of percent of control at 10^−7 M was more than 60% or the value of IC50 was more than 200 nM.)
CN(C)c1nc(N[C@H]2CC[C@@H](NC(=O)Nc3ccc(F)cc3F)CC2)nc2c1CCCC2 [compound 1661] | 3 (Class 3 The value of percent of control at 10^−7 M was more than 60% or the value of IC50 was more than 200 nM.)
CCc1cccc(C)c1NC(=O)N[C@H]1CC[C@@H](Nc2nc3c(c(N(C)C)n2)CCCC3)CC1 [compound 1662] | 1 (Class 1: The value of percent of control at 10^−7 M was less than 40% or the value of IC50 was less than 50 nM.)
CN(C)c1nc(N[C@H]2CC[C@@H](NC(=O)Nc3ccc(F)cc3)CC2)nc2c1CCCC2 [compound 1664] | 2 (Class 2: The value of percent of control at 10^−7 M was from 40% to 60% or the value of IC′50 was from 50 nM to 200 nM.)
CSc1ccc(NC(=O)N[C@H]2CC[C@@H](Nc3nc4c(c(N(C)C)n3)CCCC4)CC2)cc1 [compound 1665] | 3 (Class 3 The value of percent of control at 10^−7 M was more than 60% or the value of IC50 was more than 200 nM.)
CN(C)c1nc(N[C@H]2CC[C@@H](NC(=O)Nc3ccccc3C(F)(F)F)CC2)nc2c1CCCC2 [compound 1666] | 3 (Class 3 The value of percent of control at 10^−7 M was more than 60% or the value of IC50 was more than 200 nM.)
Cc1cc(C)c(NC(=O)N[C@H]2CC[C@@H](Nc3nc4c(c(N(C)C)n3)CCCC4)CC2)c(C)c1 [compound 1667] | 1 (Class 1: The value of percent of control at 10^−7 M was less than 40% or the value of IC50 was less than 50 nM.)
Cc1ccccc1NC(=O)N[C@H]1CC[C@@H](Nc2nc3c(c(N(C)C)n2)CCCC3)CC1 [compound 1668] | 3 (Class 3 The value of percent of control at 10^−7 M was more than 60% or the value of IC50 was more than 200 nM.)
CN(C)c1nc(N[C@H]2CC[C@@H](NC(=O)Nc3c(Cl)cc(Cl)cc3Cl)CC2)nc2c1CCCC2 [compound 1669] | 2 (Class 2: The value of percent of control at 10^−7 M was from 40% to 60% or the value of IC′50 was from 50 nM to 200 nM.)
CN(C)c1nc(N[C@H]2CC[C@@H](NC(=O)Nc3c(F)cc(Br)cc3Br)CC2)nc2c1CCCC2 [compound 1671, N-(2,4-dibromo-6-fluorophenyl)-N′-(cis-4-{[4-(dimethylamino)-5,6,7,8-tetrahydroquinazolin-2-yl]amino}cyclohexyl)urea] | 2 (Class 2: The value of percent of control at 10^−7 M was from 40% to 60% or the value of IC′50 was from 50 nM to 200 nM.)
CCc1cccc(CC)c1NC(=O)N[C@H]1CC[C@@H](Nc2nc3c(c(N(C)C)n2)CCCC3)CC1 [compound 1672] | 1 (Class 1: The value of percent of control at 10^−7 M was less than 40% or the value of IC50 was less than 50 nM.)
CN(C)c1nc(N[C@H]2CC[C@@H](NC(=O)Nc3c(Cl)cccc3C(F)(F)F)CC2)nc2c1CCCC2 [compound 1673] | 3 (Class 3 The value of percent of control at 10^−7 M was more than 60% or the value of IC50 was more than 200 nM.)
Cc1cccc(Cl)c1NC(=O)N[C@H]1CC[C@@H](Nc2nc3c(c(N(C)C)n2)CCCC3)CC1 [compound 1674] | 3 (Class 3 The value of percent of control at 10^−7 M was more than 60% or the value of IC50 was more than 200 nM.)
CN(C)c1nc(N[C@H]2CC[C@@H](NC(=O)NCc3ccccc3Cl)CC2)nc2c1CCCC2 [compound 1675, N-(2-chlorobenzyl)-N′-(cis-4-{[4-(dimethylamino)-5,6,7,8-tetrahydroquinazolin-2-yl]amino}cyclohexyl)urea] | 2 (Class 2: The value of percent of control at 10^−7 M was from 40% to 60% or the value of IC′50 was from 50 nM to 200 nM.)
CCc1cccc(C(C)C)c1NC(=O)N[C@H]1CC[C@@H](Nc2nc3c(c(N(C)C)n2)CCCC3)CC1 [compound 1676] | 2 (Class 2: The value of percent of control at 10^−7 M was from 40% to 60% or the value of IC′50 was from 50 nM to 200 nM.)
